The test has as its target T1, hTRPV3 (Homo sapiens, UniProt Q8NET8).
T1 construct: The commercially available plasmid with the full-length cDNA of hTRPV3 (791 aa) (NM_001258205.2); host or cells: HEK293T
T1 sequence (Q8NET8 1-791 isoform Q8NET8-2): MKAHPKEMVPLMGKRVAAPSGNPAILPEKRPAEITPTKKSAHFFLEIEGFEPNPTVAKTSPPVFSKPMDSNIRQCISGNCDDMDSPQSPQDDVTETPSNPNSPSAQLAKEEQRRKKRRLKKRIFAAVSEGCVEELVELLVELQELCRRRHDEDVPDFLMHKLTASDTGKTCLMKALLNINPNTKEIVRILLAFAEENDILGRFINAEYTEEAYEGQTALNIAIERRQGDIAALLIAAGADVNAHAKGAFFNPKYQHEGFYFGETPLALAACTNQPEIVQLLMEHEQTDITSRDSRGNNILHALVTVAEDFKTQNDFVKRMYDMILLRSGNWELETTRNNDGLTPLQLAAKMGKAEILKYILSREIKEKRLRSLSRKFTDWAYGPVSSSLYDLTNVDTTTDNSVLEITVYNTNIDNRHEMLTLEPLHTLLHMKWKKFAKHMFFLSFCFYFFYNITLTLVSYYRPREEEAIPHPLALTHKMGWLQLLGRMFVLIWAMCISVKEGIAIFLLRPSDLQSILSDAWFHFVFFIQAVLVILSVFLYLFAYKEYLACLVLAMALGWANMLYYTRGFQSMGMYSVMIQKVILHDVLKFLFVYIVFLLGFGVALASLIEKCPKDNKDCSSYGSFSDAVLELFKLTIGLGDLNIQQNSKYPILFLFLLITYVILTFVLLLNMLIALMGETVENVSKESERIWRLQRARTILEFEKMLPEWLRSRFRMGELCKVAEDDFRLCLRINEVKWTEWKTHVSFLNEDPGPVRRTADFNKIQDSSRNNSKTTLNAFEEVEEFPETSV
The experiment in a line: Whole-cell patch-clamp recording of hTRPV3 current in transfected HEK293T cells (2-APB induced). The test is classed as cell-based. The note with it: current induced by 300 μM 2-APB, compounds tested up to 10 μM, room temperature. The gist of the method: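 IC50 comes from Hill fits, 0–100% bounds, of percent block of 2-APB-induced current, with compounds perfused at up to 10 μM. Currents elicited at +80/−80 mV (400-ms steps, 2-s interval, 0 mV hold), room temperature, symmetric NaCl/EDTA/HEPES pH 7.4 solutions. Cells: hTRPV3-transfected HEK293T, used 18 h after transfection.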

`COc1ncnc(OC)c1C(=O)Nc1nc2c(s1)C1(CN(C(C)=O)C1)Oc1cc(C(F)(F)F)ccc1-2` [compound 68, N-(1-acetyl-7′-(trifluoromethyl)spiro[azetidine-3,4′-chromeno[4,3-d]thiazol]-2′-yl)-4,6-dimethoxypyrimidine-5-carboxamide] returned an IC50 of 1000 to 10000 nM.

`COc1ncnc(OC)c1C(=O)Nc1nc2c(s1)C1(CCN(C(=O)C3CC3)CC1)Oc1cc(C(F)(F)F)ccc1-2` [compound 69, N-(1′-(cyclopropanecarbonyl)-7-(trifluoromethyl)spiro[chromeno[4,3-d]thiazole-4,4′-piperidin]-2-yl)-4,6-dimethoxypyrimidine-5-carboxamide] yielded an IC50 of 100 to 1000 nM.

`CCC1(CC)Oc2cc(C(F)(F)F)ccc2-c2nc(NC(=O)c3c(OC)ncnc3OCCOC)sc21` [compound 70, N-(4,4-diethyl-7-(trifluoromethyl)-4H-chromeno[4,3-d]thiazol-2-yl)-4-methoxy-6-(2-methoxyethoxy)pyrimidine-5-carboxamide]: the IC50 was in the range of 100 to 1000 nM.

With `COc1ncnc(OC)c1C(=O)Nc1nc2c(ccc3cc(C#N)ccc32)s1` [compound 71, N-(7-cyanonaphtho[1,2-d]thiazol-2-yl)-4,6-dimethoxypyrimidine-5-carboxamide], the IC50 is at least 10000 nM.

`COc1ncnc(OC)c1C(=O)Nc1nc2c(cnc3cc(C(F)(F)F)ccc32)s1` [compound 72, 4,6-dimethoxy-N-(7-(trifluoromethyl)thiazolo[5,4-c]quinolin-2-yl)pyrimidine-5-carboxamide] yielded an IC50 of 1000 to 10000 nM.

For `COc1ncnc(OC)c1C(=O)Nc1nc2c(s1)C1(CCN(S(C)(=O)=O)CC1)Oc1cc(C(F)(F)F)ccc1-2` [compound 73, 4,6-dimethoxy-N-(1′-(methylsulfonyl)-7-(trifluoromethyl)spiro[chromeno[4,3-d]thiazole-4,4′-piperidin]-2-yl)pyrimidine-5-carboxamide], the IC50 is 1000 to 10000 nM.

The compound `CCC(C)(C)C(=O)N1CC2(C1)Oc1cc(C(F)(F)F)ccc1-c1nc(NC(=O)c3c(OC)ncnc3OC)sc12` [compound 74, N-(1-(2,2-dimethylbutanoyl)-7′-(trifluoromethyl)spiro[azetidine-3,4′-chromeno[4,3-d]thiazol]-2′-yl)-4,6-dimethoxypyrimidine-5-carboxamide] returned an IC50 of 100 to 1000 nM.

On to `COc1ncnc(OC)c1C(=O)Nc1nc2c(s1)C1(CN(C(=O)c3ccccc3)C1)Oc1cc(C(F)(F)F)ccc1-2` [compound 75, N-(1-benzoyl-7′-(trifluoromethyl)spiro[azetidine-3,4′-chromeno[4,3-d]thiazol]-2′-yl)-4,6-dimethoxypyrimidine-5-carboxamide], for which the IC50 lay in the range of 100 to 1000 nM.

For the compound `COc1ncnc(OC)c1C(=O)Nc1nc2c(s1)C1(CN(C(=O)c3ccco3)C1)Oc1cc(C(F)(F)F)ccc1-2` [compound 76, N-(1-(furan-2-carbonyl)-7′-(trifluoromethyl)spiro[azetidine-3,4′-chromeno[4,3-d]thiazol]-2′-yl)-4,6-dimethoxypyrimidine-5-carboxamide], the IC50 fell in the range of 1000 to 10000 nM.

`CCCCOC(=O)N1CC2(C1)Oc1cc(C(F)(F)F)ccc1-c1nc(NC(=O)c3c(OC)ncnc3OC)sc12` [compound 77, butyl 2′-(4,6-dimethoxypyrimidine-5-carboxamido)-7′-(trifluoromethyl)spiro[azetidine-3,4′-chromeno[4,3-d]thiazole]-1-carboxylate] displayed an IC50 of 100 to 1000 nM.

Take `CCOC(=O)N1CC2(C1)Oc1cc(C(F)(F)F)ccc1-c1nc(NC(=O)c3c(OC)ncnc3OC)sc12` [compound 78, ethyl 2′-(4,6-dimethoxypyrimidine-5-carboxamido)-7′-(trifluoromethyl)spiro[azetidine-3,4′-chromeno[4,3-d]thiazole]-1-carboxylate]: the IC50 fell in the range of 100 to 1000 nM.

Compound `CCC1(CC)Oc2cc(C(F)(F)F)ccc2-c2nc(NC(=O)c3c(OC)nc(O)nc3OC)sc21` [compound 79] registered an IC50 of at least 10000 nM.
